Data taken from PubChem BioAssay (NCI).
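Each compound was tested at five concentrations against cells in 96-well plates for 48 hours. TGI marks complete inhibition of growth.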

The molecules below were run on TK-10 renal (assay: NCI anticancer screen, dose series, 48 h).

Row | Compound | TGI
1 | Cc1ccc(N=N/C(=N/NC(=O)c2cc(Cl)ccc2O)c2ccc(N(CCC#N)CCC#N)cc2C)cc1 | 87.2 µM
2 | Cc1ccc2c(c1)[nH]c(=S)n2C=C(C(N)=O)C(N)=O | > 100 µM
3 | O=C1C=Cc2c(Br)sc(Br)c21 | 31.7 µM
4 | CN(C)CCNc1ccc([N+](=O)[O-])c2sc3ccccc3c(=O)c12 | > 100 µM
5 | CN1Cc2ccccc2S(=O)(=O)n2cccc2C1=O | > 100 µM
6 | O=C(C1OC1c1ccc(Cl)cc1)C12CC3CC(CC(C3)C1)C2 (centres undefined) | > 100 µM
7 | NC1c2c(Br)sc(N3CCCC3)c2C(=O)C1O (centres undefined) | > 50 µM
8 | COc1cccc(-c2nc3ccccc3c(=O)[nH]2)c1 | 36.9 µM
9 | Cc1ccc(Cc2n[nH]c(=O)[nH]2)cc1 | > 100 µM
10 | C/C=C/C(C#N)(/C=C/c1ccccc1)OP1(=O)OC(c2ccccc2)C(C)N1C (centres undefined) | 37.8 µM
11 | S=C(N1CCN(c2ccc(Cl)c(Cl)c2)CC1)N1CCN(c2ccc(Cl)c(Cl)c2)CC1 | 26.1 µM
12 | CCOC(=O)c1c(SC(=O)c2ccc(C(C)(C)C)cc2)n(-c2ccccc2)c(=S)n(-c2ccccc2)c1=O | > 100 µM
13 | CC1OC(OC2C(O[C@H]3CC[C@@H]4C(=CC[C@@H]5[C@@]4(C)C(=O)C[C@]4(C)[C@@H]([C@H](C)CC[C@@H](O)C(C)(C)O)CC[C@@]54C)C3(C)C)OC(CO)C(O)C2O)C(O)C(O)C1O (some centres undefined) | > 100 µM
14 | Cc1ccc(-c2n[nH]c(Cc3nc(-c4ccc(C)cc4)n[nH]3)n2)cc1 | > 100 µM
15 | Cc1nnc2n1N=C(c1ccccc1)/C(=C/c1ccc(-c3ccc(Cl)cc3)o1)S2 | 26.4 µM
16 | N=C(N)c1ccc(/C=C/c2ccc(C(=N)N)cc2)cc1 | 65.2 µM
17 | NC1CC(=O)c2cscc21 (centres undefined) | 33.6 µM
18 | CC(=O)Oc1c(C)c2c(c3ncccc13)OC(C)C2 (centres undefined) | 49.2 µM
19 | COc1c2c(cc3c1C(=O)c1c(O)cccc1C3=O)CC(O)CC2 (centres undefined) | > 100 µM

What follows are molecules tested on COLO 205 colon (assay: NCI anticancer screen, dose series, 48 h).

Row | Compound | TGI
20 | Cc1ccc(N=N/C(=N/NC(=O)c2cc(Cl)ccc2O)c2ccc(N(CCC#N)CCC#N)cc2C)cc1 | 44.2 µM
21 | Cc1ccc2c(c1)[nH]c(=S)n2C=C(C(N)=O)C(N)=O | > 100 µM
22 | O=C1C=Cc2c(Br)sc(Br)c21 | > 100 µM
23 | CN(C)CCNc1ccc([N+](=O)[O-])c2sc3ccccc3c(=O)c12 | 14.3 µM
24 | CN1Cc2ccccc2S(=O)(=O)n2cccc2C1=O | > 100 µM
25 | O=C(C1OC1c1ccc(Cl)cc1)C12CC3CC(CC(C3)C1)C2 (centres undefined) | 35.7 µM
26 | NC1c2c(Br)sc(N3CCCC3)c2C(=O)C1O (centres undefined) | > 50 µM
27 | COc1cccc(-c2nc3ccccc3c(=O)[nH]2)c1 | > 100 µM
28 | Cc1ccc(Cc2n[nH]c(=O)[nH]2)cc1 | > 100 µM
29 | C/C=C/C(C#N)(/C=C/c1ccccc1)OP1(=O)OC(c2ccccc2)C(C)N1C (centres undefined) | 32.1 µM
30 | S=C(N1CCN(c2ccc(Cl)c(Cl)c2)CC1)N1CCN(c2ccc(Cl)c(Cl)c2)CC1 | 22.4 µM
31 | CCOC(=O)c1c(SC(=O)c2ccc(C(C)(C)C)cc2)n(-c2ccccc2)c(=S)n(-c2ccccc2)c1=O | > 100 µM
32 | CC1OC(OC2C(O[C@H]3CC[C@@H]4C(=CC[C@@H]5[C@@]4(C)C(=O)C[C@]4(C)[C@@H]([C@H](C)CC[C@@H](O)C(C)(C)O)CC[C@@]54C)C3(C)C)OC(CO)C(O)C2O)C(O)C(O)C1O (some centres undefined) | > 100 µM
33 | Cc1ccc(-c2n[nH]c(Cc3nc(-c4ccc(C)cc4)n[nH]3)n2)cc1 | > 100 µM
34 | Cc1nnc2n1N=C(c1ccccc1)/C(=C/c1ccc(-c3ccc(Cl)cc3)o1)S2 | 41.5 µM
35 | COC1(c2ccc(Cl)cc2)SC=C(C)n2c1noc2=O (centres undefined) | > 100 µM
36 | NC1CC(=O)c2cscc21 (centres undefined) | 52 µM
37 | CC(=O)Oc1c(C)c2c(c3ncccc13)OC(C)C2 (centres undefined) | 35.7 µM
38 | COc1c2c(cc3c1C(=O)c1c(O)cccc1C3=O)CC(O)CC2 (centres undefined) | > 100 µM

These molecules were tested on SK-OV-3 ovarian (assay: NCI anticancer screen, dose series, 48 h).

Row | Compound | TGI
39 | Cc1ccc(N=N/C(=N/NC(=O)c2cc(Cl)ccc2O)c2ccc(N(CCC#N)CCC#N)cc2C)cc1 | 74.2 µM
40 | Cc1ccc2c(c1)[nH]c(=S)n2C=C(C(N)=O)C(N)=O | > 100 µM
41 | O=C1C=Cc2c(Br)sc(Br)c21 | > 100 µM
42 | CN(C)CCNc1ccc([N+](=O)[O-])c2sc3ccccc3c(=O)c12 | > 100 µM
43 | CN1Cc2ccccc2S(=O)(=O)n2cccc2C1=O | > 100 µM
44 | O=C(C1OC1c1ccc(Cl)cc1)C12CC3CC(CC(C3)C1)C2 (centres undefined) | 74 µM
45 | NC1c2c(Br)sc(N3CCCC3)c2C(=O)C1O (centres undefined) | > 50 µM
46 | COc1cccc(-c2nc3ccccc3c(=O)[nH]2)c1 | 48.2 µM
47 | Cc1ccc(Cc2n[nH]c(=O)[nH]2)cc1 | > 100 µM
48 | C/C=C/C(C#N)(/C=C/c1ccccc1)OP1(=O)OC(c2ccccc2)C(C)N1C (centres undefined) | 55.3 µM
49 | S=C(N1CCN(c2ccc(Cl)c(Cl)c2)CC1)N1CCN(c2ccc(Cl)c(Cl)c2)CC1 | 25.1 µM
50 | CCOC(=O)c1c(SC(=O)c2ccc(C(C)(C)C)cc2)n(-c2ccccc2)c(=S)n(-c2ccccc2)c1=O | > 100 µM
51 | CC1OC(OC2C(O[C@H]3CC[C@@H]4C(=CC[C@@H]5[C@@]4(C)C(=O)C[C@]4(C)[C@@H]([C@H](C)CC[C@@H](O)C(C)(C)O)CC[C@@]54C)C3(C)C)OC(CO)C(O)C2O)C(O)C(O)C1O (some centres undefined) | > 100 µM
52 | Cc1ccc(-c2n[nH]c(Cc3nc(-c4ccc(C)cc4)n[nH]3)n2)cc1 | > 100 µM
53 | Cc1nnc2n1N=C(c1ccccc1)/C(=C/c1ccc(-c3ccc(Cl)cc3)o1)S2 | > 100 µM
54 | NC1CC(=O)c2cscc21 (centres undefined) | > 100 µM
55 | CC(=O)Oc1c(C)c2c(c3ncccc13)OC(C)C2 (centres undefined) | 54.2 µM
56 | COc1c2c(cc3c1C(=O)c1c(O)cccc1C3=O)CC(O)CC2 (centres undefined) | 59 µM

The molecules below were run on NCI-H460 lung (assay: NCI anticancer screen, dose series, 48 h).

Row | Compound | TGI
57 | Cc1ccc(N=N/C(=N/NC(=O)c2cc(Cl)ccc2O)c2ccc(N(CCC#N)CCC#N)cc2C)cc1 | 68.8 µM
58 | Cc1ccc2c(c1)[nH]c(=S)n2C=C(C(N)=O)C(N)=O | > 100 µM
59 | O=C1C=Cc2c(Br)sc(Br)c21 | > 100 µM
60 | CN(C)CCNc1ccc([N+](=O)[O-])c2sc3ccccc3c(=O)c12 | 7.49 µM
61 | CN1Cc2ccccc2S(=O)(=O)n2cccc2C1=O | > 100 µM
62 | O=C(C1OC1c1ccc(Cl)cc1)C12CC3CC(CC(C3)C1)C2 (centres undefined) | 31.8 µM
63 | NC1c2c(Br)sc(N3CCCC3)c2C(=O)C1O (centres undefined) | > 50 µM
64 | COc1cccc(-c2nc3ccccc3c(=O)[nH]2)c1 | 42 µM
65 | Cc1ccc(Cc2n[nH]c(=O)[nH]2)cc1 | > 100 µM
66 | C/C=C/C(C#N)(/C=C/c1ccccc1)OP1(=O)OC(c2ccccc2)C(C)N1C (centres undefined) | 33.8 µM
67 | CCOC(=O)c1c(SC(=O)c2ccc(C(C)(C)C)cc2)n(-c2ccccc2)c(=S)n(-c2ccccc2)c1=O | > 100 µM
68 | CC1OC(OC2C(O[C@H]3CC[C@@H]4C(=CC[C@@H]5[C@@]4(C)C(=O)C[C@]4(C)[C@@H]([C@H](C)CC[C@@H](O)C(C)(C)O)CC[C@@]54C)C3(C)C)OC(CO)C(O)C2O)C(O)C(O)C1O (some centres undefined) | > 100 µM
69 | Cc1nnc2n1N=C(c1ccccc1)/C(=C/c1ccc(-c3ccc(Cl)cc3)o1)S2 | 34.2 µM
70 | COC1(c2ccc(Cl)cc2)SC=C(C)n2c1noc2=O (centres undefined) | > 100 µM
71 | N=C(N)c1ccc(/C=C/c2ccc(C(=N)N)cc2)cc1 | > 100 µM
72 | NC1CC(=O)c2cscc21 (centres undefined) | > 100 µM
73 | CC(=O)Oc1c(C)c2c(c3ncccc13)OC(C)C2 (centres undefined) | 22.7 µM
74 | COc1c2c(cc3c1C(=O)c1c(O)cccc1C3=O)CC(O)CC2 (centres undefined) | > 100 µM

These molecules were tested on MDA-MB-435 (assay: NCI anticancer screen, dose series, 48 h).

Row | Compound | TGI
75 | Cc1ccc(N=N/C(=N/NC(=O)c2cc(Cl)ccc2O)c2ccc(N(CCC#N)CCC#N)cc2C)cc1 | > 100 µM
76 | Cc1ccc2c(c1)[nH]c(=S)n2C=C(C(N)=O)C(N)=O | > 100 µM
77 | O=C1C=Cc2c(Br)sc(Br)c21 | 46.1 µM
78 | CN(C)CCNc1ccc([N+](=O)[O-])c2sc3ccccc3c(=O)c12 | 27.4 µM
79 | CN1Cc2ccccc2S(=O)(=O)n2cccc2C1=O | > 100 µM
80 | O=C(C1OC1c1ccc(Cl)cc1)C12CC3CC(CC(C3)C1)C2 (centres undefined) | 33.1 µM
81 | NC1c2c(Br)sc(N3CCCC3)c2C(=O)C1O (centres undefined) | > 50 µM
82 | COc1cccc(-c2nc3ccccc3c(=O)[nH]2)c1 | 28.1 µM
83 | Cc1ccc(Cc2n[nH]c(=O)[nH]2)cc1 | > 100 µM
84 | C/C=C/C(C#N)(/C=C/c1ccccc1)OP1(=O)OC(c2ccccc2)C(C)N1C (centres undefined) | 34.9 µM
85 | S=C(N1CCN(c2ccc(Cl)c(Cl)c2)CC1)N1CCN(c2ccc(Cl)c(Cl)c2)CC1 | 29 µM
86 | CCOC(=O)c1c(SC(=O)c2ccc(C(C)(C)C)cc2)n(-c2ccccc2)c(=S)n(-c2ccccc2)c1=O | > 100 µM
87 | CC1OC(OC2C(O[C@H]3CC[C@@H]4C(=CC[C@@H]5[C@@]4(C)C(=O)C[C@]4(C)[C@@H]([C@H](C)CC[C@@H](O)C(C)(C)O)CC[C@@]54C)C3(C)C)OC(CO)C(O)C2O)C(O)C(O)C1O (some centres undefined) | > 100 µM
88 | Cc1ccc(-c2n[nH]c(Cc3nc(-c4ccc(C)cc4)n[nH]3)n2)cc1 | > 100 µM
89 | Cc1nnc2n1N=C(c1ccccc1)/C(=C/c1ccc(-c3ccc(Cl)cc3)o1)S2 | 22.3 µM
